The values below come from patent US5350864A, “Aminoalkylcarbamyl derivatives of forskolin as intermediates for the synthesis of useful forskolin derivatives” (The United States of America as represented by the …, priority 1990, dated 1994).

In data set [1] the test system is glucose transporter. As to conditions: cited from earlier work.
Another data set concerns cancer cells. The note with it: certain cancer cells; literature; cited from earlier work.
The target in data set [2] is T1, P-glycoprotein (Homo sapiens, UniProt P08183).
T1 sequence (P08183 whole entry): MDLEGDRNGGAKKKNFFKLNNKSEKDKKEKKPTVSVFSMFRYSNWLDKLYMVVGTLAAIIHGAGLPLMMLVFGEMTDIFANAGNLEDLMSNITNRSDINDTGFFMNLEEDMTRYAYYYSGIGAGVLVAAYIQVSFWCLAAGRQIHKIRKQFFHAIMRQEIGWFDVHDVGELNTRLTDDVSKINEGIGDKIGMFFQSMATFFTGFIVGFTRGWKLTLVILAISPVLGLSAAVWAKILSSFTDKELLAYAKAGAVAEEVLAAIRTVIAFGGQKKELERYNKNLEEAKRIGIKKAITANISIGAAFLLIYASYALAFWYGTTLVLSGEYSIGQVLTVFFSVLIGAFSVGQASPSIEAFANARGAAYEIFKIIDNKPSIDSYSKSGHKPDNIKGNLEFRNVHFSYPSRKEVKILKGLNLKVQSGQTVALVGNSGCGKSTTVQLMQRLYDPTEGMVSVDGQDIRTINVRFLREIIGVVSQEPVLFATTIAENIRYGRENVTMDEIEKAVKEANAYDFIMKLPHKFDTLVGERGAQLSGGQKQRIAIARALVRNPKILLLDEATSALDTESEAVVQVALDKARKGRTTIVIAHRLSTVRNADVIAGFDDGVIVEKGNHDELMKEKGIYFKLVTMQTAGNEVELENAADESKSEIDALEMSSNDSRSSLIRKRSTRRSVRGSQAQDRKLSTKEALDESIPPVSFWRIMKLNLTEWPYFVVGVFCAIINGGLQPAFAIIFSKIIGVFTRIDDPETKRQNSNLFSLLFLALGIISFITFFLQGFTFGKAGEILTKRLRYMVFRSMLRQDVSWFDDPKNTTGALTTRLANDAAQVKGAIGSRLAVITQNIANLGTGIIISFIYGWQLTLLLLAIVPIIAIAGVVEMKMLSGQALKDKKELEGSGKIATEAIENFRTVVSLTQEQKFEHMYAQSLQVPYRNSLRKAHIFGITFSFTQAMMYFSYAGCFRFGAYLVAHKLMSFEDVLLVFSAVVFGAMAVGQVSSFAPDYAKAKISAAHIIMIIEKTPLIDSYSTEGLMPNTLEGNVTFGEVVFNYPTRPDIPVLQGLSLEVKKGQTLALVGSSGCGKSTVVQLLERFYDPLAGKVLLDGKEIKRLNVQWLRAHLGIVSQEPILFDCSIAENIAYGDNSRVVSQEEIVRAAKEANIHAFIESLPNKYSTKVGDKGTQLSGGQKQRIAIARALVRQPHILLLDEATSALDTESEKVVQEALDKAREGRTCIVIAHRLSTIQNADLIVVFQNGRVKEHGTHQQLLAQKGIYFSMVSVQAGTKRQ
The test system of data set [3] is adenylate cyclase. As to conditions: literature, cited from earlier work.
For data set [4], the system named is adenylate cyclase. The experiment in a line: Filtration binding assay, ^125 I-labelled derivative 19 (6-^125 I-HPP-Fsk) to bovine brain membranes. The note with it: for inhibition of 6-^125 I-HPP-Fsk binding: 60 min. The text has this: (§1) Derivative 19 (6-^125 I-HPP-Fsk) was used to develop a binding assay for adenylate cyclase (Example 4). […] Therefore, a filtration assay can be used to separate the bound from free ligand and determine the amount of high affinity binding. […] Analogs of forskolin that activate adenylate cyclase inhibit the binding of 6-^125 I-HPP-Fsk to membranes. The ability of an agent to inhibit 6-^125 I-HPP-Fsk binding to membranes is therefore indicative of its ability to stimulate adenylate cyclase.
Binding of 6-^125 I-HPP-Fsk to Membranes--Crude membranes from bovine brain were incubated for 60 minutes at […] 20° C. with 20,000 cpm of 6-^125 I-HPP-Fsk. Binding equilibrium was reached by 45 minutes and was constant for at least 2 hours (data not shown). The incubations were carried out at 20° C. for 60 minutes in 12×75 glass test tubes in a total volume of 0.4 mL […] Tris-HCl buffer, pH 7.4. The membranes (0.40 mg/tube) were incubated in the presence of 5 mM MgCl2 and 10 mM NaF. The assay was terminated by the addition of 5 mL of cold Tris-HCl buffer to the tubes and rapid filtration over Whatman GF/C filters using a Brandel cell harvester. The assay was terminated as described above and the filters counted in a gamma counter. The nonspecific binding was calculated as the amount of label not displaced by 20 uM forskolin. The non specific binding was about 20% of the total bound.

For data set [5], the system named is adenylate cyclase. Put plainly: Photolabelling of bovine brain membranes, SDS gel electrophoresis. Format: binding. The protocol: (§2) Derivative 20 (6-AIPPS-Fsk) is incubated with partially purified preparations of bovine brain adenylate cyclase, photolyzed, and then the radioactive proteins are analyzed by SDS gel electrophoresis. […] 6-AIPPS-Fsk can also label adenylate cyclase in crude membranes. 6-AIPPS-Fsk is incubated with bovine brain membranes, photolyzed, and the radioactive proteins are analyzed by SDS gel electrophoresis.

The conditions of data set [6]: literature; cited from earlier work.
Data set [7] has as its system adenylate cyclase. The experiment in a line: Photolabelling of partially purified bovine brain adenylate cyclase, SDS gel electrophoresis. The format is binding. The protocol: as §2
For data set [8], the system named is P-glycoprotein. The experiment in a line: Binding to the P-glycoprotein.
Data set [9] addresses T2, glucose transporter (Homo sapiens, UniProt P11166).
T2 construct: Crude membranes from human red blood cells; from tissue; host or cells: human red blood cells, membranes
T2 sequence (P11166 1-492): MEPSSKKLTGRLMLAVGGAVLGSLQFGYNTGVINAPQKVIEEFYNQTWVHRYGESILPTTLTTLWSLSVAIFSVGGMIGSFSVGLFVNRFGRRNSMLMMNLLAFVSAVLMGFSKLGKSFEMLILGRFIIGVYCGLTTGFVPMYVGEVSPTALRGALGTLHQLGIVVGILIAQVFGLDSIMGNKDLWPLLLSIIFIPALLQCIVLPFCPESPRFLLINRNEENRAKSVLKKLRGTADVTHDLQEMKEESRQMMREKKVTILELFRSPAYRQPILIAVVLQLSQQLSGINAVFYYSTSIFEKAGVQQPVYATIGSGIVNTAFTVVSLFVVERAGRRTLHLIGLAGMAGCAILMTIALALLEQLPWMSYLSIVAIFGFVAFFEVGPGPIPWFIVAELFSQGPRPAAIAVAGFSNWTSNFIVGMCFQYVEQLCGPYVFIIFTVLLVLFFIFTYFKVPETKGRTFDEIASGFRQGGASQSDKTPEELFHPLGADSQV
Put plainly: Filtration binding assay, ^125 I-labelled derivative 8 (7-^125 I-HPP-Fsk) to human red blood cell membranes. The note with it: for inhibition of 7-^125 I-HPP-Fsk binding: human red blood cell membranes. The protocol: Binding of 7-^125 IHPP-Fsk to Membranes--Crude membranes from human red blood cells were incubated for 60 minutes at 20° C. with 20,000 cpm of 7-^125 IHPP-Fsk. […] The incubations were carried out at 20° C. for 60 minutes in 12×75 glass test tubes in a total volume of 0.4 mL 50 mM Tris-HCl buffer, pH 7.4. The assay was terminated by the addition of 4 mL of cold Tris-HCl buffer to the tubes at rapid filtration over Whatman GF/C filters using a Brandel cell harvester. The assay was terminated as described above and the filters counted in a gamma counter. The nonspecific binding was calculated as the amount of label not displaced by 20 μM forskolin.

In data set [10] the test system is bovine brain adenylate cyclase. Put plainly: Activation of bovine brain adenylate cyclase. Format: biochemical. As to conditions: relative to forskolin.
A further data set is described as follows: Water solubility. Format: physicochemical. The note with it: relative to forskolin.
The nature of data set [11]: Stability to heating in base. Format: physicochemical. As to conditions: heating in 0.1N KOH in methanol, two hours, 60° C. The protocol: The 7-aminoethylcarbamate can be synthesized using the 1,9-dimethylformamide acetal of 7-desacetylforskolin as starting material (see synthetic scheme of FIG. 2). The selective reactivity of carbonyldiimidazole (CDI) with the equatorial 7β-hydroxyl group is exploited to form the 7-acylimidazole intermediate. The reaction of the 7-acylimidazole intermediate with ethylenediamine produces the 7-aminoethylcarbamate of forskolin (see 3 in FIG. 1 and Example 1). The same procedure is carried out to produce 7β-aminobutylcarbamate (5), 7β-aminohexylcarbamate (6), and the 7β-aminoheptylcarbamate (7) of forskolin. The 7β-aminoalkylcarbamates of forskolin are very stable compounds. The 7β-aminoethylcarbamate of forskolin is stable to heating in 0.1N KOH in methanol for two hours at 60° C.

Data set [12] has as its system adenylate cyclase. The experiment in a line: Binding of 6-^125 I-HPP-Fsk to membranes from human platelets.
Source text: as §1

The target in data set [13] is T1, P-glycoprotein. The experiment in a line: Photolabelling of membranes from human ovarian carcinoma cell line overexpressing P-glycoprotein.
Data set [14] concerns glucose transporter. The experiment in a line: Binding of 7-^125 I-HPP-Fsk to rat heart. From the text:
(§3) 7-^125 I-HPP-Fsk also binds with high affinity to other tissues including bovine brain, rat heart, rat muscle, and human platelets. The binding of 7-^125 I-HPP-Fsk to these tissues is inhibited by D-glucose and cytochalasin B. Therefore, 7-^125 I-HPP-Fsk binds with high affinity to the glucose transporter in diverse tissues.

The test system of data set [15] is glucose transporter. Put plainly: Binding of 7-^125 I-HPP-Fsk to bovine brain.
Source text: as §3

The target of data set [16] is T2, glucose transporter. Put plainly: Photolabelling of human red blood cell membranes, SDS gel electrophoresis. The format is binding. The protocol: Derivative 9 (7-AIPPS-Fsk) is incubated with human red blood cell membranes, photolyzed, and then the radioactive proteins were analyzed by SDS gel electrophoresis.
In data set [17] the target is glucose transporter. The note with it: read-out: affinity of cytochalasin B; cited from earlier work.
Data set [18] relates to glucose transporter. Put plainly: Binding of 7-^125 I-HPP-Fsk to rat muscle.
Source text: as §3

For data set [19], the target named is T3, glucose transporter (Homo sapiens, UniProt P11169).
T3 construct: other tissues including bovine brain, rat heart, rat muscle, and human platelets; from tissue; host or cells: human platelets
T3 sequence (P11169 1-496): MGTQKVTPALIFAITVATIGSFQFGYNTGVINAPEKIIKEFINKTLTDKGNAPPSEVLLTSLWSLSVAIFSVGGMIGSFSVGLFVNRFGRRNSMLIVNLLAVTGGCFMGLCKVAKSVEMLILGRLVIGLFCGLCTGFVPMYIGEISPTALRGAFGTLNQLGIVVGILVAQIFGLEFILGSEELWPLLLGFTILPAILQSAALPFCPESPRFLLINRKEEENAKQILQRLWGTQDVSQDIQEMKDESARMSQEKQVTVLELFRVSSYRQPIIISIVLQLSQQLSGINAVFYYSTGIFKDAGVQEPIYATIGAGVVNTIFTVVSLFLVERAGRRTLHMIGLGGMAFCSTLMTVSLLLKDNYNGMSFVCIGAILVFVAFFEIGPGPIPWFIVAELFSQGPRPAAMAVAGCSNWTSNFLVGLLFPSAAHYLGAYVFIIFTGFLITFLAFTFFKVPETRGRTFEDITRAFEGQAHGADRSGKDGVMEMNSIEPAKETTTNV
Put plainly: Binding of 7-^125 I-HPP-Fsk to human platelets.
Source text: as §3

Entries after “also recorded” stand apart in the source; their conditions may differ. Where two headings read alike, the source gives them in different places.

Take `C=C[C@@]1(C)CC(=O)[C@@H]2[C@@]3(C)CCCC(C)(C)[C@@H]3[C@H](O)[C@H](OC(C)=O)[C@@]2(C)O1` [1,9-dideoxyforskolin]: the “inhibition of glucose transport” value in the data set with glucose transporter [1] (adipocyte membranes, literature) is on record as “inhibit glucose transport in adipocyte membranes”. In addition, the “sensitization to cytotoxic effects of drugs” value with cancer cells is on record as “can sensitize certain cancer cells to the cytotoxic effects of drugs”. In addition, the entries for the “inhibition of labelling by 6-AIPPS-Fsk” value against P-glycoprotein [2] and in the data set on adenylate cyclase [5] were “more potent at inhibiting the labelling by 6-AIPPS-Fsk than forskolin” and “not inhibited”, respectively. Besides, the “activation of adenylate cyclase” value with adenylate cyclase [3] was “inability”; in the data set on adenylate cyclase [3] (listed as 1,9-Dideoxyforskolin), “does not activate adenylate cyclase; also recorded: not active at adenylate cyclase”. In addition, the “inhibition of 6-^125 I-HPP-Fsk binding” value in the data set on adenylate cyclase [4] (bovine brain membranes, 20° C.) was “not by 1,9-dideoxyforskolin”.
In the case of `C=C[C@@]1(C)CC(=O)[C@]2(O)[C@@]3(C)[C@@H](O)CCC(C)(C)[C@@H]3[C@H](O)[C@H](OC(C)=O)[C@@]2(C)O1` [Compound 1, forskolin], in the data set with glucose transporter [1] (relative to adenylate cyclase activation), the “potency at activating adenylate cyclase versus inhibiting glucose transport” value is recorded as “equipotent”. The cardiotonic effects result in data set [6] is “marked cardiotonic effects”. Also, the “inhibition of labelling by 6-AIPPS-Fsk” value in the data set with adenylate cyclase [7] is listed as “inhibited”. Also, in the data set on cancer cells, the “sensitization to cytotoxic effects of drugs” value was “can sensitize certain cancer cells to the cytotoxic effects of drugs”. Also, the “binding to P-glycoprotein” value in the data set with P-glycoprotein [8] is “bind to the P-glycoprotein”. In the data set with adenylate cyclase [3], the “activation of adenylate cyclase” value was “activate the enzyme adenylate cyclase and increase intracellular cyclic AMP”. Further, the “inhibition of 6-^125 I-HPP-Fsk binding” value with adenylate cyclase [4] (bovine brain membranes, 20° C.) is given as “inhibited”. At glucose transporter [9], the “binding affinity / selectivity” value is “binds to the glucose transporter in human red blood cells” and the “inhibition of 7-^125 I-HPP-Fsk binding” value is on record as “inhibited”.
On to `C=C[C@@]1(C)CC(=O)[C@]2(O)[C@@]3(C)[C@@H](O)CCC(C)(C)[C@@H]3[C@H](O)[C@H](OC(=O)NCCN)[C@@]2(C)O1` [Compound 3, 7-aminoethyl-carbamylforskolin], for which, in [10], the “extent of stimulation of adenylate cyclase” value is recorded as “stimulate adenylate cyclase to a greater extent than forskolin”. Besides, the water solubility result in “Water solubility” is reported as “enhanced water solubility”. For the same compound, on glucose transporter [9] (erythrocyte membranes), the “potency relative to 6-aminoethylcarbamyl derivative 4 at inhibiting binding of 7-^125 I-HPP-Fsk” value is listed as “about 30 fold”. Besides, the stability result in data set [11] was “stable”.
Consider `C=C[C@@]1(C)CC(=O)[C@]2(O)[C@@]3(C)[C@@H](O)CCC(C)(C)[C@@H]3[C@H](OC(=O)NCCNC(=O)CCc3ccc(O)c([125I])c3)[C@H](OC(C)=O)[C@@]2(C)O1` [Derivative 19], for which the “time binding was constant” value in the data set with adenylate cyclase [4] (20° C.) is given as “at least 2 hours”. For the same compound, in the data set on adenylate cyclase [4] (20° C.), the “time to binding equilibrium” value is at most 45 min. In addition, the “selectivity of 6-^125 I-HPP-Fsk binding” value in the data set with adenylate cyclase [4] (adenylate cyclase versus glucose transporter, listed as 6-^125 I-HPP-Fsk) is given as “not binding with high affinity to the glucose transporter in brain tissue; also recorded: specific for adenylate cyclase”. For the same compound, the “binding affinity” value in the data set on adenylate cyclase [4] (bovine brain membranes) is recorded as “high affinity”. Moreover, the Kd at adenylate cyclase [4] (membranes from bovine brain) and with adenylate cyclase [12] was around 25 nM each time.
Regarding `COc1cccc2c1C(=O)c1c(O)c3c(c(O)c1C2=O)C[C@@](O)(C(=O)CO)C[C@@H]3O[C@H]1C[C@H](N)[C@H](O)[C@H](C)O1` [adriamycin], the “inhibition of labelling by 6-AIPPS-Fsk” value against P-glycoprotein [13] is “inhibited”.
With `C=C1C(C)C2C(Cc3ccccc3)NC(=O)C23OC(=O)/C=C/C(O)CCCC(C)C/C=C/C3C1O` (stereo not drawn) [cytochalasin B], the “inhibition of 7-^125 I-HPP-Fsk binding” value in the data set on glucose transporter [14] is “inhibited”; with glucose transporter [15] it was “inhibited”; in the data set on glucose transporter [18], “inhibited”; at glucose transporter [9], “inhibition of binding; also recorded: inhibited”; on glucose transporter [9] (listed as cytochlasin B), “inhibited”; at glucose transporter [19] it was “inhibited”. On glucose transporter [16], the “inhibition of labelling by 7-AIPPS-Fsk” value was “inhibited”. At glucose transporter [17], the Kd is around 1000 nM. The “inhibition of 6-^125 I-HPP-Fsk binding” value with adenylate cyclase [4] (bovine brain membranes, 20° C.) is given as “not inhibited”.
